Legend:
ECHCG [1] = assay: Example II in-water applied, greenhouse, transplanted paddy rice weeds; format: in vivo, Echinochloa crusgalli (L.) Beauv.; conditions: 135 gai/ha
Procedure: (§1) Applications were made by injecting with a pipetter appropriate amounts of the application solutions, individually and sequentially, into the aqueous layer of the paddy. Control plants were treated in the same manner with the solvent blank. Applications were made so that all treated plant material received the same concentrations of acetone and crop oil concentrate.
(§2) The treated plants and control plants were placed in a greenhouse as described above and water was added as needed to maintain a paddy flood. After approximately 3 weeks the condition of the test plants as compared with that of the untreated plants was determined visually and scored on a scale of 0 to 100 percent where 0 corresponds to no injury or growth inhibition and 100 corresponds to complete kill.
(§3) Colby's equation was used to determine the herbicidal effects expected from the mixtures (Colby, S. R. 1967. Calculation of the synergistic and antagonistic response of herbicide combinations. Weeds 15:20-22.).
(§4) The following equation was used to calculate the expected activity of mixtures containing two active ingredients, A and B: Expected=A+B−(A×B/100)

LEFCH = assay: Example I postemergence foliar-applied, greenhouse, direct seeded rice weeds; format: in vivo, Leptochloa chinensis (L.) Nees; conditions: 112 gai/ha
Excerpt: (§5) Seeds or nutlets of the desired test plant species were planted in a soil matrix prepared by mixing a loam or sandy loam soil (e.g., 28.6 percent silt, 18.8 percent clay, and 52.6 percent sand, with a pH of about 5.8 and an organic matter content of about 1.8 percent) and calcareous grit in an 80 to 20 ratio. The soil matrix was contained in plastic pots with a volume of 1 quart and a surface area of 83.6 square centimeters (cm^2). When required to ensure good germination and healthy plants, a fungicide treatment and/or other chemical or physical treatment was applied. The plants were grown for 8-22 days in a greenhouse with an approximate 14 hr. photoperiod which was maintained at about 29° C. during the day and 26° C. during the night. Nutrients (Peters Excel® 15-5-15 5-Ca 2-Mg and iron chelate) were applied in the irrigation solution as needed and water was added on a regular basis. Supplemental lighting was provided with overhead metal halide 1000-Watt lamps as necessary. The plants were employed for testing when they reached the first through fourth true leaf stage.
(§6) Treatments consisted of the acid or esters of 4-amino-3-chloro-5-fluoro-6-(4-chloro-2-fluoro-3-methoxy-phenyl)pyridine-2-carboxylic acid (Compound A), each formulated as an SC (suspension concentrate), and various herbicidal components alone and in combination.
(§7) Other herbicidal components were applied on an acid equivalent (ae) or active ingredient (ai) basis and included acetyl coA carboxylase (ACCase)-inhibiting herbicides (cyclohexanedione and aryloxyphenoxypropionate chemical classes) cyhalofop-butyl formulated as Clincher® SF (285 gr ai/L EC), diclofop-methyl formulated as Hoelon® 3EC, fenoxaprop-p-ethyl+isoxadifen-ethyl formulated as RiceStar® HT (0.58 lb./gal EC), fenoxaprop-p-ethyl+mefenpyr diethyl formulated as Puma® IEC, metamifop formulated as Metamifop EC, haloxyfop-methyl formulated as Gallant Super®, fluazifop-p-butyl formulated as Fusilade® DX, quizalofop-p-ethyl formulated as Assure® II, profoxydim formulated as Aura® 20EC, clethodim applied as Intensity®, sethoxydim formulated as Poast®, and tralkoxydim formulated as Achieve®.
(§8) Treatment requirements were calculated based upon the rates being tested, the concentration of active ingredient or acid equivalent in the formulation, and a 12 mL application volume at a rate of 187 L/ha.
(§9) For treatments comprised of formulated compounds, measured amounts of compounds were placed individually in 25 mL glass vials and diluted in a volume of 1.25% (v/v) Agri-Dex® crop oil concentrated to obtain 12× stock solutions. […] Application solutions were prepared by adding an appropriate amount of each stock solution (e.g., 1 mL) and diluted to the appropriate final concentrations with the addition of 10 mL of an aqueous mixture of 1.25% (v/v) crop oil concentrate so that the final spray solutions contained 1.25+/−0.05% (v/v) crop oil concentrate.
(§10) All stock solutions and applications solutions were visually inspected for compound compatibility prior to application. Spray solutions were applied to the plant material with an overhead Mandel track sprayer equipped with a 8002E nozzles calibrated to deliver 187 L/ha over an application area of 0.503 m^2 at a spray height of 18 to 20 inches (46 to 50 cm) above average plant canopy height. Control plants were sprayed in the same manner with the solvent blank.
as §2, with “watered by sub-irrigation” for “water was added as needed”, “prevent wash-off of the test compounds.” for “maintain a paddy flood.”, “weeks,” for “weeks”, “kill. […]” for “kill.”

SCPJU [2] = assay: Example II in-water applied, greenhouse, transplanted paddy rice weeds; format: in vivo, Schoenoplectus juncoides (Roxb.) Palla; conditions: in-water, 135 gai/ha
Procedure: (§11) Weed seeds or nutlets of the desired test plant species were planted in puddled soil (mud) prepared by mixing a shredded, non-sterilized mineral soil (50.5 percent silt, 25.5 percent clay, and 24 percent sand, with a pH of about 7.6 and an organic matter content of about 2.9 percent) and water at a 1:1 volumetric ratio. The prepared mud was dispensed in 365 mL aliquots into 16-ounce (oz.) non-perforated plastic pots with a surface area of 86.59 square centimeters (cm^2) leaving a headspace of 3 centimeters (cm) in each pot. Mud was allowed to dry overnight prior to planting or transplanting. Rice seeds were planted in Sun Gro MetroMix® 306 planting mixture, which typically has a pH of 6.0 to 6.8 and an organic matter content of about 30 percent, in plastic plug trays. Seedlings at the second or third leaf stage of growth were transplanted into 860 mL of mud contained in 32-oz. non-perforated plastic pots with a surface area of 86.59 cm^2 4 days prior to herbicide application. The paddy was created by filling the headspace of the pots with 2.5 to 3 cm of water. […] The plants were grown for 4-22 days in a greenhouse with an approximate 14 hr. photoperiod which was maintained at about 29° C. during the day and 26° C. during the night. Nutrients were added as Osmocote® (19:6:12, N:P:K+minor nutrients) at 2 g per 16-oz. pot and 4 g per 32-oz. pot. Water was added on a regular basis to maintain the paddy flood, and supplemental lighting was provided with overhead metal halide 1000-Watt lamps as necessary. The plants were employed for testing when they reached the first through fourth true leaf stage.
(§12) Treatments consisted of the acid or esters of 4-amino-3-chloro-5-fluoro-6-(4-chloro-2-fluoro-3-methoxy-phenyl)pyridine-2-carboxylic acid (compound A) each formulated as an SC (suspension concentrate) and various herbicidal components alone and in combination.
(§13) For formulated compounds, a measured amount was placed in an individual 100 or 200 mL glass vial and was dissolved in a volume of 1.25% (v/v) Agri-Dex® crop oil concentrate to obtain application solutions.
as §1, §2, §3, §4

CYPDI = assay: Example I postemergence foliar-applied, greenhouse, direct seeded rice weeds; format: in vivo, Cyperus difformis L.
Excerpt: as §5, §6, §7, §8, §9
All stock solutions and applications solutions were visually inspected for compound compatibility prior to application. […]
as §2, with “watered by sub-irrigation” for “water was added as needed”, “prevent wash-off of the test compounds.” for “maintain a paddy flood.”, “weeks,” for “weeks”, “kill. […]” for “kill.”

FIMMI = assay: Example II in-water applied, greenhouse, transplanted paddy rice weeds; format: in vivo, Fimbristylis miliacea (L.) Vahl
Procedure: as §11, §12, §13, §1, §2, §3, §4

CYPIR = assay: Example I postemergence foliar-applied, greenhouse, direct seeded rice weeds; format: in vivo, Cyperus iria L.
Excerpt: as §5, §6, §7, §8, §9, §10
as §2, with “watered by sub-irrigation” for “water was added as needed”, “prevent wash-off of the test compounds.” for “maintain a paddy flood.”, “weeks,” for “weeks”, “kill. […]” for “kill.”

SCPJU [3] = assay: as above; format: in vivo, Schoenoplectus juncoides (Roxb.) Palla
Excerpt: as §5, §6, §7, §8, §9, §10
as §2, with “watered by sub-irrigation” for “water was added as needed”, “prevent wash-off of the test compounds.” for “maintain a paddy flood.”, “weeks,” for “weeks”, “kill. […]” for “kill.”

CYPES = assay: as above; format: in vivo, Cyperus esculentus L.
Excerpt: as §5, §6, §7, §8, §9, §10
as §2, with “watered by sub-irrigation” for “water was added as needed”, “prevent wash-off of the test compounds.” for “maintain a paddy flood.”, “weeks,” for “weeks”, “kill. […]” for “kill.”

ECHCG [4] = assay: as above; format: in vivo, Echinochloa crusgalli (L.) Beauv.
Excerpt: as §5, §6, §7, §8, §9, §10
as §2, with “watered by sub-irrigation” for “water was added as needed”, “prevent wash-off of the test compounds.” for “maintain a paddy flood.”, “weeks,” for “weeks”, “kill. […]” for “kill.”

What does the source list for `CCC/C(=N\OCC)C1=C(O)CC(CC(C)SCC)CC1=O` (stereo not shown) [Sethoxydim, 2-[1-(ethoxyimino)butyl]-5-[2-(ethylthio)propyl]-3-hydroxy-2-cyclohexen-1-one]?
Visual Weed Control (%) - 21 DAA ECHCG Obs (ECHCG [1]): 60%; Visual Weed Control (%) - 22 DAA LEFCH Obs (LEFCH): 70%; Visual Weed Control (%) - 21 DAA SCPJU Obs (SCPJU [2]): 0%; Visual Weed Control (%) - 22 DAA CYPDI Obs (CYPDI; 67.5 gai/ha): 0%; Visual Weed Control (%) - 22 DAA CYPDI Obs (CYPDI; 135 gai/ha): 0%; Visual Weed Control (%) - 22 DAA CYPDI Obs (CYPDI; 270 gai/ha): 0%; Visual Weed Control (%) - 21 DAA FIMMI Obs (FIMMI; 135 gai/ha): 50%; Visual Weed Control (%) - 21 DAA FIMMI Obs (FIMMI; 270 gai/ha): 30%; Visual Weed Control (%) - 22 DAA CYPIR Obs (CYPIR; 67.5 gai/ha): 0%; Visual Weed Control (%) - 22 DAA CYPIR Obs (CYPIR; 135 gai/ha): 0%; Visual Weed Control (%) - 22 DAA CYPIR Obs (CYPIR; 270 gai/ha): 0%; Visual Weed Control (%) - 22 DAA SCPJU Obs (SCPJU [3]; 67.5 gai/ha): 0%; Visual Weed Control (%) - 22 DAA SCPJU Obs (SCPJU [3]; 135 gai/ha): 0%; Visual Weed Control (%) - 22 DAA SCPJU Obs (SCPJU [3]; 270 gai/ha): 0%; Visual Weed Control (%) - 22 DAA CYPES Obs (CYPES; 67.5 gai/ha): 0%; Visual Weed Control (%) - 22 DAA CYPES Obs (CYPES; 135 gai/ha): 0%; Visual Weed Control (%) - 22 DAA CYPES Obs (CYPES; 270 gai/ha): 0%; Visual Weed Control (%) - 22 DAA ECHCG Obs (ECHCG [4]; 56 gai/ha): 30%; Visual Weed Control (%) - 22 DAA ECHCG Obs (ECHCG [4]; 112 gai/ha): 90%

— patent US9232796B2, “Herbicidal compositions comprising 4-amino-3-chloro-5-fluoro-6-(4-chloro-2-fluoro-3-methoxyphenyl) pyridine-2-carboxylic acid or a derivative thereof and acetyl-CoA carboxylase (ACCase) inhibitors” (DOW AGROSCIENCES LLC, priority 2012, dated 2016)
